{"source": "patent US5609897A", "about": "“Powdered beverage concentrate or additive fortified with calcium and vitamin D” (priority 1995, dated 1997)", "key": {"[1]": {"conditions": "rats, 3 weeks, right femur calcium, as compared to a control; cited from earlier work"}, "[2]": {"conditions": "without aluminum-containing drugs, normal kidneys; cited from earlier work"}, "[3]": {"conditions": "cited from earlier work"}, "[4]": {"test_system": "yeasts and molds", "conditions": "pH 4.5 to 3.0; cited from earlier work"}, "[5]": {"conditions": "humans; cited from earlier work"}, "[6]": {"experiment": "Titratable acidity of calcium sources", "assay_type": "physicochemical", "conditions": "from pH 3.5 to pH 8.3, 40 g sample", "description": "Acidity is desired in the liquid nutritional product of the present invention for several reasons such as: to maintain the calcium salt solubility, to complement flavor, to control microbial growth, and to enhance the role of preservatives, specifically potassium benzoate or sodium benzoate. On the other hand, too much acidity can result in increased tartness and sourness that make the product undesirable from a sensory point of view. […] Titratable acidity is an indication of the total acidity of a beverage."}, "[7]": {"conditions": "low birth weight infants; cited from earlier work"}, "[8]": {"conditions": "piglets; cited from earlier work"}, "[9]": {"conditions": "pH 3.5", "procedure": "In this evaluation solubility was determined by a visual examination."}, "[10]": {"conditions": "cited from earlier work", "remark": "listed apart in the source"}}, "note": "Counter-ions that a name gives are not always drawn. Like-named read-outs stand apart in the source and are kept apart here."}
{"compound": "O=P([O-])([O-])[O-].O=P([O-])([O-])[O-].[Ca+2].[Ca+2].[Ca+2]", "note": "[Tricalcium Phosphate, tricalcium phosphate]", "values": [{"measurement": "Relative calcium bioavailability", "setting": "[1]", "value": 110, "unit": "%"}]}
{"compound": "O=C(O)CC(O)(CC(=O)O)C(=O)O", "note": "[Calcium Citrate, calcium citrate]", "values": [{"measurement": "Risk of aluminum toxicity", "setting": "[2]", "value": "does not pose a risk of aluminum toxicity"}, {"measurement": "Relative calcium bioavailability", "setting": "[1]", "value": 110, "unit": "%"}]}
{"compound": "vitamin D", "values": [{"measurement": "calcium balance and fracture risk", "setting": "[3]; 600-800 IU/day", "value": "improve calcium balance and reduce fracture risk"}, {"measurement": "risks of excessive doses", "setting": "[3]; excessive doses", "value": "hypercalciuria and hypercalcemia"}]}
{"compound": "O=C(O)c1ccccc1", "note": "[benzoic acid]", "values": [{"measurement": "preservative effect on reducing pH from 4.5 to 3.0", "setting": "[4]", "value": "increased by nearly three times"}]}
{"compound": "Calcium Citrate Malate", "values": [{"measurement": "Calcium absorption", "setting": "[5]", "value": 38.3, "unit": "%"}, {"measurement": "Titratable acidity", "setting": "[6]", "value": "53.2 mL of 0.1N NaOH"}]}
{"compound": "Calcium Glycerophosphate [CaGP]", "values": [{"measurement": "Efficacy as source of calcium in TPN", "setting": "[7]", "value": "as effective as calcium gluconate"}, {"measurement": "Efficacy as source of calcium in TPN", "setting": "[8]", "value": "as effective as calcium gluconate"}, {"measurement": "Titratable acidity", "setting": "[6]", "value": "43.5 mL of 0.1N NaOH"}]}
{"compound": "O=C(O)[C@H](O)[C@@H](O)[C@H](O)[C@H](O)CO", "note": "[D-Gluconic-Acid, D-gluconic acid (hemicalcium salt)]", "values": [{"measurement": "Solubility", "setting": "[9]", "value": "soluble"}, {"measurement": "Solubility over one month", "setting": "[9]", "value": "remained soluble at pH 3.5 for at least one month"}]}
{"compound": "O=C(O)O", "note": "[Calcium Carbonate, calcium carbonate]", "values": [{"measurement": "Calcium absorption", "setting": "[5]", "value": 29.6, "unit": "%"}, {"measurement": "adverse effects of large amounts", "setting": "[10]", "value": "constipation and abdominal distention"}]}
